Assay results published in patent publication US20220089575A1, “FARNESOID X RECEPTOR AGONISTS AND USES THEREOF” (Metacrine, Inc., priority 2017, published 2022).

Target: T1, hFXR (Homo sapiens, UniProt Q96RI1)
T1 construct: expressed in transfected cells; host or cells: CV-1 cells
T1 sequence (Q96RI1 1-486): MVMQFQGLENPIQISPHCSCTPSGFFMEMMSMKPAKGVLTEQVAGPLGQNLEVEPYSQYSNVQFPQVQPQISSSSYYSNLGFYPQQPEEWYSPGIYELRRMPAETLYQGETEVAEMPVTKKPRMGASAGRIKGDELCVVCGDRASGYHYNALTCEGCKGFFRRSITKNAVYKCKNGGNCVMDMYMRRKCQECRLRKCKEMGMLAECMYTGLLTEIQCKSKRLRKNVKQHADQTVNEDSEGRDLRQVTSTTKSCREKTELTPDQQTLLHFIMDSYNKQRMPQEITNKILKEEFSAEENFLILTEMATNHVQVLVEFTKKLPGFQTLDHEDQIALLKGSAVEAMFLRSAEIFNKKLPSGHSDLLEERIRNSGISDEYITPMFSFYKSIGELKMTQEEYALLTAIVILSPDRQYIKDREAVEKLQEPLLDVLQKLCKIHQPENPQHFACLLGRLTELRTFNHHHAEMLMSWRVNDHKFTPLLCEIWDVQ
T1 sequence (P19793 1-462 partner): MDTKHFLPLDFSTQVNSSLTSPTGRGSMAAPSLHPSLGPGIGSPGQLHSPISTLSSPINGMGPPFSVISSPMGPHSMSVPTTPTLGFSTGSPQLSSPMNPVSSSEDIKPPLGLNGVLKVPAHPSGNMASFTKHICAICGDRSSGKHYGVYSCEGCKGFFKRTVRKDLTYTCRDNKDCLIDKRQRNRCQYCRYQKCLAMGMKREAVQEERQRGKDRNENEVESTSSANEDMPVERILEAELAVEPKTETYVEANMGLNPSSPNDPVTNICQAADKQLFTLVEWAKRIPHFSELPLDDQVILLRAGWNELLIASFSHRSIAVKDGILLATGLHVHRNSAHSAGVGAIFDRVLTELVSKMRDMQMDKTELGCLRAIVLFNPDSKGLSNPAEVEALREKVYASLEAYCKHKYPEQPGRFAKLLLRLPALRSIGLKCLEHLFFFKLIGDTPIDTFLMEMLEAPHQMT
Assay: In Vitro FXR Assay (TK): TK-ECRE-luc reporter in transfected CV-1 cells
Type: cell-based
Settings: 18 hrs, luminescence, maximum efficacy of <25% of the Fexarmine control classified as '+'
Outline: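 CV-1, transient co-transfection: hFXR + hRXR + TK-ECRE-luc + pCMX-YFP; charcoal-stripped serum. 18 h post-transfection, DMSO serial dilutions of cpd added; 18 h incubation; lysis, luminescence.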

EC50, ≤ 250 nM:
COCC1CN(C(=O)O[C@H]2CC[C@H](C(=O)N(C[C@H]3CC[C@H](c4ccc(OC)c(C)c4)CC3)c3cccc(-c4cnn(C5CC5)c4)c3)CC2)C1 [Compound 7.26, trans-4-((3-(1-Cyclopropyl-1H-pyrazol-4-yl)phenyl)((trans-4-(4-methoxy-3-methylphenyl)cyclohexyl)methyl)carbamoyl)cyclohexyl 3-(methoxymethyl)azetidine-1-carboxylate]
COc1ccc([C@H]2CC[C@H](CN(c3cccc(-c4cnn(C5CC5)c4)c3)C(=O)[C@H]3CC[C@H](OC(=O)N4CC(N(C)C)C4)CC3)CC2)cc1C [Compound 7.27, trans-4-((3-(1-Cyclopropyl-1H-pyrazol-4-yl)phenyl)((trans-4-(4-methoxy-3-methylphenyl)cyclohexyl)methyl)carbamoyl)cyclohexyl 3-(dimethylamino)azetidine-1-carboxylate]
COc1ccc([C@H]2CC[C@H](CN(c3cccc(-c4cnn(C5CC5)c4)c3)C(=O)[C@H]3CC[C@H](OC(=O)N4CC(CO)C4)CC3)CC2)cc1C [Compound 7.28, trans-4-((3-(1-Cyclopropyl-1H-pyrazol-4-yl)phenyl)((trans-4-(4-methoxy-3-methylphenyl)cyclohexyl)methyl)carbamoyl)cyclohexyl 3-(hydroxymethyl)azetidine-1-carboxylate]
COc1ccc([C@H]2CC[C@H](CN(c3cccc(-c4cnn(C5CC5)c4)c3)C(=O)[C@H]3CC[C@H](OC(=O)N4CC[S+]([O-])CC4)CC3)CC2)cc1C [Compound 7.29, trans-4-((3-(1-Cyclopropyl-1H-pyrazol-4-yl)phenyl)((trans-4-(4-methoxy-3-methylphenyl)cyclohexyl)methyl)carbamoyl)cyclohexyl thiomorpholine-4-carboxylate 1-oxide]
COc1ccc([C@H]2CC[C@H](CN(c3cccc(-c4cnn(C5CC5)c4)c3)C(=O)[C@H]3CC[C@H](OC(=O)N4CCS(=O)(=O)CC4)CC3)CC2)cc1C [Compound 7.30, trans-4-((3-(1-Cyclopropyl-1H-pyrazol-4-yl)phenyl)((trans-4-(4-methoxy-3-methylphenyl)cyclohexyl)methyl)carbamoyl)cyclohexyl thiomorpholine-4-carboxylate1,1-dioxide]
COc1ccc([C@H]2CC[C@H](CN(c3cccc(-c4cnn(C5CC5)c4)c3)C(=O)[C@H]3CC[C@H](OC(=O)N4CCC4)CC3)CC2)cc1C [Compound 7.31, trans-4-((3-(1-Cyclopropyl-1H-pyrazol-4-yl)phenyl)((trans-4-(4-methoxy-3-methylphenyl)cyclohexyl)methyl)carbamoyl)cyclohexyl azetidine-1-carboxylate]
COc1ccc([C@H]2CC[C@H](CN(c3cccc(-c4cnn(C5CC5)c4)c3)C(=O)[C@H]3CC[C@H](OC(=O)N4CC(CN(C)C)C4)CC3)CC2)cc1C [Compound 7.32, trans-4-((3-(1-Cyclopropyl-1H-pyrazol-4-yl)phenyl)((trans-4-(4-methoxy-3-methylphenyl)cyclohexyl)methyl)carbamoyl)cyclohexyl 3-((dimethylamino)methyl)azetidine-1-carboxylate]
COc1ccc([C@H]2CC[C@H](CN(c3cccc(-c4cnn(C5CC5)c4)c3)C(=O)[C@H]3CC[C@H](OC(=O)N4CC(O)C4)CC3)CC2)nc1C#N [Compound 7.33, trans-4-(((trans-4-(6-Cyano-5-methoxypyridin-2-yl)cyclohexyl)methyl)(3-(1-cyclopropyl-1H-pyrazol-4-yl)phenyl)carbamoyl) cyclohexyl 3-hydroxyazetidine-1-carboxylate]
COC(=O)C1CN(C(=O)O[C@H]2CC[C@H](C(=O)N(C[C@H]3CC[C@H](c4ccc(OC)c(C)c4)CC3)c3cccc(-c4cnn(C5CC5)c4)c3)CC2)C1 [Compound 7.34, 1-(trans-4-((3-(1-Cyclopropyl-1H-pyrazol-4-yl)phenyl)((trans-4-(4-methoxy-3-methylphenyl)cyclohexyl)methyl)carbamoyl)cyclohexyl) 3-methylazetidine-1,3-dicarboxylate]
COc1ccc([C@H]2CC[C@H](CN(c3cccc(-c4cnn(C5CC5)c4)c3)C(=O)[C@H]3CC[C@H](OC(=O)N4CC(C(=O)O)C4)CC3)CC2)cc1C [Compound 7.35, 1-(((trans-4-((3-(1-Cyclopropyl-1H-pyrazol-4-yl)phenyl)((trans-4-(4-methoxy-3-methylphenyl)cyclohexyl)methyl)carbamoyl)cyclohexyl)oxy)carbonyl)azetidine-3-carboxylic acid]
COc1ccc([C@H]2CC[C@H](CN(c3cccc(-c4cnn(C5CC5)c4)c3)C(=O)[C@H]3CC[C@H](OC(=O)N4CC(N(C)C(=O)OC(C)(C)C)C4)CC3)CC2)cc1C [Compound 7.36, trans-4-((3-(1-Cyclopropyl-1H-pyrazol-4-yl)phenyl)((trans-4-(4-methoxy-3-methylphenyl)cyclohexyl)methyl)carbamoyl)cyclohexyl 3-((tert-butoxycarbonyl)(methyl)amino) azetidine-1-carboxylate]
CNC1CN(C(=O)O[C@H]2CC[C@H](C(=O)N(C[C@H]3CC[C@H](c4ccc(OC)c(C)c4)CC3)c3cccc(-c4cnn(C5CC5)c4)c3)CC2)C1 [Compound 7.37]
COc1ccc([C@H]2CC[C@H](CN(c3cccc(-c4cnn(C5CC5)c4)c3)C(=O)[C@H]3CC[C@H](OC(=O)N4CC(NC(=O)OC(C)(C)C)C4)CC3)CC2)cc1C [Compound 7.38, trans-4-((3-(1-Cyclopropyl-1H-pyrazol-4-yl)phenyl)((trans-4-(4-methoxy-3-methylphenyl)cyclohexyl)methyl)carbamoyl)cyclohexyl 3-((tert-butoxycarbonyl)amino)azetidine-1-carboxylate]
COc1ccc([C@H]2CC[C@H](CN(c3cccc(-c4cnn(C5CC5)c4)c3)C(=O)[C@H]3CC[C@H](OC(=O)N4CC(N)C4)CC3)CC2)cc1C [Compound 7.39, trans-4-((3-(1-Cyclopropyl-1H-pyrazol-4-yl)phenyl)((trans-4-(4-methoxy-3-methylphenyl)cyclohexyl)methyl)carbamoyl)cyclohexyl 3-aminoazetidine-1-carboxylate]
COc1ccc([C@H]2CC[C@H](CN(c3cc(-c4cnn(C(C)C)c4)ccn3)C(=O)[C@H]3CC[C@H](OC(=O)N4CC(O)C4)CC3)CC2)nc1C#N [Compound 7.40, trans-4-(((trans-4-(6-Cyano-5-methoxypyridin-2-yl)cyclohexyl)methyl)(4-(1-isopropyl-1H-pyrazol-4-yl)pyridin-2-yl)carbamoyl) cyclohexyl 3-hydroxyazetidine-1-carboxylate]
COC(=O)CC1CN(C(=O)O[C@H]2CC[C@H](C(=O)N(C[C@H]3CC[C@H](c4ccc(OC)c(C)c4)CC3)c3cccc(-c4cnn(C5CC5)c4)c3)CC2)C1 [Compound 7.41, trans-4-((3-(1-Cyclopropyl-1H-pyrazol-4-yl)phenyl)((trans-4-(4-methoxy-3-methylphenyl)cyclohexyl)methyl)carbamoyl)cyclohexyl 3-(2-methoxy-2-oxoethyl)azetidine-1-carboxylate]
COc1ccc([C@H]2CC[C@H](CN(c3cccc(-c4cnn(C5CC5)c4)c3)C(=O)[C@H]3CC[C@H](OC(=O)N4CC(CC(=O)O)C4)CC3)CC2)cc1C [Compound 7.42, 2-(1-(((trans-4-((3-(1-Cyclopropyl-1H-pyrazol-4-yl)phenyl)((trans-4-(4-methoxy-3-methylphenyl)cyclohexyl)methyl)carbamoyl)cyclohexyl)oxy)carbonyl)azetidin-3-yl)acetic acid]
COc1ccc([C@H]2CC[C@H](CN(c3cccc(-c4cnn(C(C)C)c4)c3)C(=O)[C@H]3CC[C@H](OC(=O)N4CC(O)C4)CC3)CC2)nc1C#N [Compound 7.43, trans-4-(((trans-4-(6-Cyano-5-methoxypyridin-2-yl)cyclohexyl)methyl)(3-(1-isopropyl-1H-pyrazol-4-yl)phenyl)carbamoyl)cyclohexyl 3-hydroxyazetidine-1-carboxylate]
COc1ccc([C@H]2CC[C@H](CN(c3cc(-c4cnn(C(C)C)c4)ccn3)C(=O)[C@H]3CC[C@H](OC(=O)NC(C)C)CC3)CC2)nc1C [Compound 7.44, trans-4-((4-(1-Isopropyl-1H-pyrazol-4-yl)pyridin-2-yl)((trans-4-(5-methoxy-6-methylpyridin-2-yl)cyclohexyl)methyl)carbamoyl)cyclohexyl isopropylcarbamate]
